Assay results: patent US12377092B2, “Polycomb inhibitors and uses thereof” (FONDAZIONE ISTITUTO FIRC DI ONCOLOGIA MOLECOLARE (IFOM), priority 2017, dated 2025)

Tests used:
VE-cadherin and PECAM1 = assay: Real time analysis of VE-cadherin and Pecam1 transcripts, CCM1 knock out cells; type: cell-based, mouse; settings: PTC209
Protocol: (§1) RNA extraction was performed both with (A) RNeasy kits (Promega) or (B) RNAeasy Mini Kit (QIAGEN). The latter allows also the extraction of proteins from the same sample. The RNA (500 ng) was reverse transcribed with random hexamers (High Capacity cDNA Archive kits; Applied Biosystems) in a final volume of 30 uL. Reaction were made with a thermocycler (Eppendorf) 10 min at 25° C. followed by 2 hours at 37° C. cDNA (5 ng) was amplified in triplicate in a reaction volume of 15 uL using TaqMan Gene Expression Assays (Applied Biosystems) in a ABI/Prism 7900 HT using a pre PCR step of 10 min at 95° C., followed by 40 cycles of 15 seconds at 95° C. and 60 seconds at 60° C. For each sample, the expression level was determined with the comparative threshold cycle (Ct) method, and normalized to the housekeeping genes encoding 18S, glyceraldehyde-3-phosphate dehydrogenase (GAPDH) and hypoxanthine-guanine phosphoribosyltransferase (hprt1). Ct or threshold cycle, represents the PCR cycle at which an increase in reporter fluorescence above a base-line signal can first be detect.
Also for CCM1 model, the inventors tested the effect of Bmi1 inhibition on junction organisation. […]

[1] = test system: EndMT markers (Klf4, Sca1 and Fsp1); type: cell-based, mouse; settings: 72 hours
Protocol: (§2) Cells were seeded 6.3×10^4 cells/cm^2. The day after, PTC209 and UNC1999 were added to the confluent cells. Drugs were left for one or three days depending on the aim of the experiment. Final concentrations used for the two drugs were: 1 uM PTC209 and 5 uM UNC1999.
(§3) Confluent cells were lysed with boiling modified Laemi sample Buffer (2% SDS, 20% glycerol, and 125 mM Tris-HCl, pH 6.8). Lysates were incubated for 10 minutes at 100° C. to allow proteins denaturation. Protein concentration was estimated using the BCA Protein Assay Kit (Pierce). Equal amount of proteins was loaded on a gel, separated by SDS-PAGE and transferred to a Protran Nitrocellulose Membrane (Whatman) 0.2 um pores. The membranes were blocked for 1 hour at RT in Tris Buffered Saline (TBS: NaCl 150 mM, Tris-HCl 10 mM pH 7.4) plus 0.1% Tween-20 containing 5% BSA or milk. The membranes were incubated with primary antibodies diluted in TBST (TBS plus 0.1% Tween-20) containing 5% of either BSA or milk overnight at 4° C. Next, membranes were rinsed three times with TBST for 5 minutes each and incubated for 45 minutes at RT with HRP-linked secondary antibodies diluted in TBST containing 5% BSA/milk. Membranes were rinsed three times with TBST for 5 minutes each and specific bindings were detected by enhanced chemiluminescence (ECL) system (Amersham Bioscience) using ChemiDoc XRS gel imaging system (Bio-Rad).

VE-cadherin = assay: Western blot analysis of VE-cadherin, CCM3 knock out cells; type: cell-based, mouse; settings: 72 hours
Protocol: as §2
as §3, with “The membranes were incubated with primary antibodies diluted in TBST (TBS plus 0.1% Tween-20) containing 5% of either BSA or milk overnight at 4° C. Next, membranes were rinsed three times with TBST for 5 minutes each and incubated for 45 minutes at RT with HRP-linked secondary antibodies diluted in TBST containing 5% BSA/milk.” left out
Experiment with combined PTC209 and UNC1999 treatments was repeated with the same experimental conditions described before and junction organisation was analysed through VE-cadherin staining and protein expression analysis (FIG. 19).

Bmi1 = target: T1, Bmi1 (Mus musculus, UniProt P25916); assay: Western blot analysis of Bmi1, wild type and CCM3 knock out immortalized lung endothelial cells; type: cell-based; settings: 24 hours of treatment, 1 uM PTC209 vs DMSO
T1 construct: western blot analysis of Bmi1 on lysates from confluent wild type (WT) and CCM3 knockout (CCM3-KO) cells treated with PTC209; endogenous in cells; host or cells: immortalized mouse lung endothelial cells, wild type and CCM3 knock out (VECPAC/CCM3 fl/fl, TAT-Cre)
T1 sequence (P25916 1-324): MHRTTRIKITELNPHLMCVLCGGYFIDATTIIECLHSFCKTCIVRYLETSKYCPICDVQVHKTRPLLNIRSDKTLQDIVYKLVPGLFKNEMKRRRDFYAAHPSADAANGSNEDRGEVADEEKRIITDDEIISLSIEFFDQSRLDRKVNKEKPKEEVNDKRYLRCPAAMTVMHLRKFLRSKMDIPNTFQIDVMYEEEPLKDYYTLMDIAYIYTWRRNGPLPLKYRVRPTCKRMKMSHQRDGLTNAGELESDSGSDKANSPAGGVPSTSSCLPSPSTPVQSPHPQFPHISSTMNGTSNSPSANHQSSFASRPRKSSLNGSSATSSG
Protocol: as §3
CCM3 knock out cells were immortalized lung endothelial cells derived from VECPAC/CCM3^fl/fl mice, treated with TAT-Cre recombinase. […] As control the same cell line without TAT-Cre treatment were used. […]

[2] = test system: EndMT markers (Klf4, Sca1 and Fsp1); assay: Real time (RT-PCR) analysis of EndMT markers, wild type and CCM3 knock out immortalized lung endothelial cells; type: cell-based, mouse; settings: 72 hours
Protocol: as §2, §1
Wild type and CCM3 knock out cells were treated with either PTC209 or DMSO starting from the day after seeding, when cells were confluent. For this experiment cells were lysed for western blot and real-time analysis after 72 hours of treatment to check a long-term effect of PTC209.
To perform these experiments, immortalized lung endothelial cells both wild type and CCM3 knock out were treated, with the same experimental strategy used for PTC209, with UNC1999 for 72 hours and subsequently lysed for western blot and real time analysis. UNC1999 was used in its specific optimal concentration, which was different to PTC209. As control DMSO was given to the cells in a volume equal to the volume of DMSO in which UNC1999 was previously dissolved to rich the optimal concentration.
Briefly, wild type and CCM3 knock out cells were treated with either PTC209, UNC1999 or a combination of the two. PTC209 and UNC1999 were administrated at the same concentration used for the single treatment and DMSO was given as control in a volume equal to the sum of volumes of DMSO in which UNC1999 and PTC209 were previously dissolved.

LEF1 = assay: Immunofluorescence of LEF1, CCM3 knock out cells; type: cell-based, mouse; settings: PTC209 vs DMSO
From the text: The inventors started to analysed interaction between Bmi1 and β-catenin pathway. By immunofluorescence analysis on wild type and CCM3 knock out cells treated with PTC209 and DMSO as control, as already mentioned, the inventors checked expression of LEF1, a transcription factor that is directly activated by β-catenin and is responsible for transcriptional activation of Axin2 (Behrens et al., 1996), to see whether Bmi1 inhibition interfered with β-catenin pathway activation.

COc1cc(Br)c(Nc2nc(-c3c(C)nc4ncccn34)cs2)c(Br)c1 [PTC209, N-(2,6-dibromo-4-methoxyphenyl)-4-(2-methylimidazo[1,2-a]pyrimidin-3-yl)thiazol-2-amine]
VE-cadherin and PECAM1 transcript levels (gene expression analysis) (VE-cadherin and PECAM1): did not show any rescue
EndMT markers (Klf4, Sca1, Fsp1) protein levels (western blot) ([1]; CCM1 knock out cells, vs DMSO): strong inhibition
Klf4 protein (western blot) ([1]; wild type cells (physiological condition), CCM1 model): not downregulated
VE-cadherin protein expression level (western blot) (VE-cadherin): did not show any rescue
Bmi1 protein expression (western blot) (Bmi1; CCM3 knock out cells): downregulation of Bmi1
Bmi1 protein expression (western blot) (Bmi1; wild type cells): downregulation of Bmi1
Klf4 transcript up-regulation induced by CCM3 deletion (real time analysis) ([2]; CCM3 knock out cells): completely rescued
Klf4, Sca1 and Fsp1 transcripts (real time analysis) ([2]; CCM3 knock out cells, 1 uM PTC209, 5 uM UNC1999, vs DMSO): downregulated
Klf4 transcript (real time analysis) ([2]; wild type cells (physiological condition), CCM3 model): not affected
LEF1 (immunofluorescence) (LEF1): reduced
